From US8722849B2, “Polypeptides” (Novo Nordisk A/S, priority 2011, dated 2014)
Starred links: 1 amine or outer side, 2 acyl side, 3 side chain; linkers in the order of their positions; H or OH if unused. Positions of bridges follow the written chain, without caps; N, C: chain ends. Residues, ends and D or L forms follow the SMILES beside them. *: point of attachment. C20 diacid = O=C(O)CCCCCCCCCCCCCCCCCCC(=O)*; C18 diacid = O=C(O)CCCCCCCCCCCCCCCCC(=O)*; γGlu = O=C(O)[C@H](CCC(=O)[*:2])N[*:1]

Key:
Type in all cases: cell-based
[1] = molecular target: T1, human calcitonin receptor (Homo sapiens, UniProt P30988); assay: Assay (II)a functional CRE-luciferase assay, human calcitonin receptor; conditions: Table 7; human calcitonin (CTa) receptor
T1 construct: expressed in transfected cells; host or cells: BHK570
T1 sequence (P30988 25-474): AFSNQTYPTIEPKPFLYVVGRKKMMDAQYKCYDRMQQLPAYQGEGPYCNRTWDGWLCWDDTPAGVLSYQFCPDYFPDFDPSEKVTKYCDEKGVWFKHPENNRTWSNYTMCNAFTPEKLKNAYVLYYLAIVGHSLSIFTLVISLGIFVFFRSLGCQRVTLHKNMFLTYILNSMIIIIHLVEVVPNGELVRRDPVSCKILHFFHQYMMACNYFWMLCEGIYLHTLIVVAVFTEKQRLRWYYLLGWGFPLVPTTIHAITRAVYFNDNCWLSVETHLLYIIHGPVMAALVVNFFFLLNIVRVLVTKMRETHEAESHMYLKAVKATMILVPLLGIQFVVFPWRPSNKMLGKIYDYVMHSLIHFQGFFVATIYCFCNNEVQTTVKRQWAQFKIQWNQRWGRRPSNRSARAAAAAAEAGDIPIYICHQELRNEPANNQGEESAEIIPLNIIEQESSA

[2] = molecular target: T2, rat amylin 3(a) receptor (rat calcitonin(a) receptor + rat RAMP3) (Rattus norvegicus, UniProt P32214+Q9JJ73); assay: Assay (II)b functional cAMP FlashPlate assay, rat amylin receptor; conditions: Table 11
T2 construct: expressed in transfected cells; host or cells: BHK tk'ts 13
T2 sequence (P32214 25-479 isoform P32214-2 limits assumed): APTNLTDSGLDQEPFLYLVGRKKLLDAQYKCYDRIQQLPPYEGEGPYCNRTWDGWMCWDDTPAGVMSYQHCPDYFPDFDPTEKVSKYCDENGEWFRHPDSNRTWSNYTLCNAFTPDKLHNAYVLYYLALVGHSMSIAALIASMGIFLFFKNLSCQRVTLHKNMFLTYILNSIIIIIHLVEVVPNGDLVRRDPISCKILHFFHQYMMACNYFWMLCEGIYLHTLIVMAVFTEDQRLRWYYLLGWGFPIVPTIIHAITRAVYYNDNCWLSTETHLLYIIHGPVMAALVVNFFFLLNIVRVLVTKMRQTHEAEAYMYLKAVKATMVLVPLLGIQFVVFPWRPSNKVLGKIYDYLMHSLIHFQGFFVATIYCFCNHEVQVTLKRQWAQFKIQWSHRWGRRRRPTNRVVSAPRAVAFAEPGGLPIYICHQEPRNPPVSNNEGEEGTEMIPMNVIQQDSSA
T2 sequence (Q9JJ73 23-147 partner): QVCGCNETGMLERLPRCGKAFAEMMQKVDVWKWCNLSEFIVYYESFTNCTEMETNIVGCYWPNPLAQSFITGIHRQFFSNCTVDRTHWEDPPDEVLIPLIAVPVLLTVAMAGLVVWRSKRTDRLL
Outline: (§1)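 BHK tk'ts 13 cells transiently transfected with rat calcitonin(a) receptor, alone or with rat RAMP3 (amylin 3(a)), were stimulated 24 hours later with sample for 30 min in buffer containing IBMX. cAMP measured by competitive radioactive FlashPlate assay, scintillation read after 3 h detection incubation.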

[3] = molecular target: T3, rat calcitonin (a) receptor (Rattus norvegicus, UniProt P32214); assay: Assay (II)b functional cAMP FlashPlate assay, rat calcitonin receptor; conditions: Table 11; read-out: CTa receptor rat EC50
T3 construct: expressed in transfected cells; host or cells: BHK tk'ts 13
T3 sequence (P32214 25-479 isoform P32214-2 limits assumed): T2 sequence (P32214 25-479 isoform P32214-2 limits assumed)
Outline: as §1

SMILES | EC50 [1] | EC50 [2] | EC50 [3]
CC[C@H](C)[C@H](NC(=O)[C@@H]1CCCN1C(=O)CNC(=O)[C@H](Cc1ccccc1)NC(=O)[C@H](CC(N)=O)NC(=O)[C@H](CC(N)=O)NC(=O)[C@H](CO)NC(=O)[C@H](CO)NC(=O)[C@H](Cc1c[nH]cn1)NC(=O)[C@H](Cc1c[nH]cn1)NC(=O)[C@H](CC(C)C)NC(=O)[C@H](Cc1ccccc1)NC(=O)[C@H](CCC(=O)O)NC(=O)[C@H](C)NC(=O)[C@H](CC(C)C)NC(=O)[C@H](CCCNC(=N)N)NC(=O)[C@H](CCC(N)=O)NC(=O)[C@@H](NC(=O)[C@H](C)NC(=O)[C@@H]1CSSC[C@H](NC(=O)[C@H](CCCCN)NC(=O)CC[C@H](NC(=O)CCCCCCCCCCCCCCCCCCC(=O)O)C(=O)O)C(=O)N[C@@H](CC(N)=O)C(=O)N[C@@H]([C@@H](C)O)C(=O)N[C@@H](C)C(=O)N[C@@H]([C@@H](C)O)C(=O)N1)[C@@H](C)O)C(=O)N[C@@H](CC(C)C)C(=O)N1CCC[C@H]1C(=O)N1CCC[C@H]1C(=O)N[C@H](C(=O)N[C@@H](CC(N)=O)C(=O)N[C@H](C(=O)NCC(=O)N[C@@H](CO)C(=O)N[C@@H](CC(N)=O)C(=O)N[C@H](C(=O)N[C@@H](Cc1ccc(O)cc1)C(N)=O)[C@@H](C)O)C(C)C)[C@@H](C)O [Example 27, N-alpha-[(S)-4-Carboxy-4-(19-carboxynonadecanoylamino)butyryl]-[Glu14,His17]-pramlintide] ({C20 diacid-γGlu}-KCNTATCATQRLAEFLHHSSNNFGPILPPTNVGSNTY-NH2; disulfide 2-7 (inferred)) | 0.107 nM | 0.188 nM | 0.539 nM
CC[C@H](C)[C@H](NC(=O)[C@@H]1CCCN1C(=O)CNC(=O)[C@H](Cc1ccccc1)NC(=O)[C@H](CC(N)=O)NC(=O)[C@H](CC(N)=O)NC(=O)[C@H](CO)NC(=O)[C@H](CO)NC(=O)[C@H](Cc1c[nH]cn1)NC(=O)[C@H](Cc1c[nH]cn1)NC(=O)[C@H](CC(C)C)NC(=O)[C@H](Cc1ccccc1)NC(=O)[C@H](CCC(=O)O)NC(=O)[C@H](C)NC(=O)[C@H](CC(C)C)NC(=O)[C@H](CCCNC(=N)N)NC(=O)[C@H](CCC(N)=O)NC(=O)[C@@H](NC(=O)[C@H](C)NC(=O)[C@@H]1CSSC[C@H](NC(=O)[C@H](Cc2c[nH]cn2)NC(=O)[C@H](Cc2c[nH]cn2)NC(=O)[C@H](Cc2c[nH]cn2)NC(=O)CC[C@H](NC(=O)CCCCCCCCCCCCCCCCCCC(=O)O)C(=O)O)C(=O)N[C@@H](CC(N)=O)C(=O)N[C@@H]([C@@H](C)O)C(=O)N[C@@H](C)C(=O)N[C@@H]([C@@H](C)O)C(=O)N1)[C@@H](C)O)C(=O)N[C@@H](CC(C)C)C(=O)N1CCC[C@H]1C(=O)N1CCC[C@H]1C(=O)N[C@H](C(=O)N[C@@H](CC(N)=O)C(=O)N[C@H](C(=O)NCC(=O)N[C@@H](CO)C(=O)N[C@@H](Cc1c[nH]cn1)C(=O)N[C@H](C(=O)N[C@@H](Cc1ccc(O)cc1)C(N)=O)[C@@H](C)O)C(C)C)[C@@H](C)O [Example 31, N-alpha-[(S)-4-Carboxy-4-(19-carboxynonadecanoylamino)butyryl]-His-His-[His1,Glu14,His17,His35]-pramlintide] ({C20 diacid-γGlu}-HHHCNTATCATQRLAEFLHHSSNNFGPILPPTNVGSHTY-NH2; disulfide 4-9 (inferred); C-terminus assumed) | 0.156 nM | 0.2 nM | 1.31 nM
CC[C@H](C)[C@H](NC(=O)[C@@H]1CCCN1C(=O)CNC(=O)[C@H](Cc1ccccc1)NC(=O)[C@H](CC(N)=O)NC(=O)[C@H](CC(N)=O)NC(=O)[C@H](CO)NC(=O)[C@H](CO)NC(=O)[C@H](Cc1c[nH]cn1)NC(=O)[C@H](Cc1c[nH]cn1)NC(=O)[C@H](CC(C)C)NC(=O)[C@H](Cc1ccccc1)NC(=O)[C@H](CCC(=O)O)NC(=O)[C@H](C)NC(=O)[C@H](CC(C)C)NC(=O)[C@H](CCCNC(=N)N)NC(=O)[C@H](CCC(N)=O)NC(=O)[C@@H](NC(=O)[C@H](C)NC(=O)[C@@H]1CSSC[C@H](NC(=O)[C@H](Cc2c[nH]cn2)NC(=O)[C@H](Cc2c[nH]cn2)NC(=O)[C@H](Cc2c[nH]cn2)NC(=O)CC[C@H](NC(=O)CCCCCCCCCCCCCCCCCCC(=O)O)C(=O)O)C(=O)N[C@@H](Cc2c[nH]cn2)C(=O)N[C@@H]([C@@H](C)O)C(=O)N[C@@H](C)C(=O)N[C@@H]([C@@H](C)O)C(=O)N1)[C@@H](C)O)C(=O)N[C@@H](CC(C)C)C(=O)N1CCC[C@H]1C(=O)N1CCC[C@H]1C(=O)N[C@H](C(=O)N[C@@H](CC(N)=O)C(=O)N[C@H](C(=O)NCC(=O)N[C@@H](CO)C(=O)N[C@@H](Cc1c[nH]cn1)C(=O)N[C@H](C(=O)N[C@@H](Cc1ccc(O)cc1)C(N)=O)[C@@H](C)O)C(C)C)[C@@H](C)O [Example 32, N-alpha-[(S)-4-Carboxy-4-(19-carboxynonadecanoylamino)butyryl]-His-His-[His1,His3,Glu14,His17,His35]-pramlintide] ({C20 diacid-γGlu}-HHHCHTATCATQRLAEFLHHSSNNFGPILPPTNVGSHTY-NH2; disulfide 4-9 (inferred)) | 0.543 nM | 0.401 nM | 4.87 nM
CC[C@H](C)[C@H](NC(=O)[C@@H]1CCCN1C(=O)CNC(=O)[C@H](Cc1ccccc1)NC(=O)[C@H](CC(N)=O)NC(=O)[C@H](CC(N)=O)NC(=O)[C@H](CO)NC(=O)[C@H](CO)NC(=O)[C@H](Cc1c[nH]cn1)NC(=O)[C@H](Cc1c[nH]cn1)NC(=O)[C@H](CC(C)C)NC(=O)[C@H](Cc1ccccc1)NC(=O)[C@H](CCC(=O)O)NC(=O)[C@H](C)NC(=O)[C@H](CC(C)C)NC(=O)[C@H](CCCNC(=N)N)NC(=O)[C@H](CCC(N)=O)NC(=O)[C@@H](NC(=O)[C@H](C)NC(=O)[C@@H]1CSSC[C@H](NC(=O)[C@H](CCCCN)NC(=O)[C@H](CCC(=O)O)NC(=O)CC[C@H](NC(=O)CCCCCCCCCCCCCCCCC(=O)O)C(=O)O)C(=O)N[C@@H](CC(N)=O)C(=O)N[C@@H]([C@@H](C)O)C(=O)N[C@@H](C)C(=O)N[C@@H]([C@@H](C)O)C(=O)N1)[C@@H](C)O)C(=O)N[C@@H](CC(C)C)C(=O)N1CCC[C@H]1C(=O)N1CCC[C@H]1C(=O)N[C@H](C(=O)N[C@@H](CC(N)=O)C(=O)N[C@H](C(=O)NCC(=O)N[C@@H](CO)C(=O)N[C@@H](CC(N)=O)C(=O)N[C@H](C(=O)N[C@@H](Cc1ccc(O)cc1)C(N)=O)[C@@H](C)O)C(C)C)[C@@H](C)O [Example 42, N-alpha-[(S)-4-Carboxy-4-(17-carboxyheptadecanoylamino)butyryl]-Glu-[Glu14,His17]-pramlintide] ({C18 diacid-γGlu}-EKCNTATCATQRLAEFLHHSSNNFGPILPPTNVGSNTY-NH2; disulfide 3-8 (inferred)) | 0.274 nM | 0.135 nM | 2.43 nM
CC[C@H](C)[C@H](NC(=O)[C@@H]1CCCN1C(=O)CNC(=O)[C@H](Cc1ccccc1)NC(=O)[C@H](CC(N)=O)NC(=O)[C@H](CC(N)=O)NC(=O)[C@H](CO)NC(=O)[C@H](CO)NC(=O)[C@H](Cc1c[nH]cn1)NC(=O)[C@H](Cc1c[nH]cn1)NC(=O)[C@H](CC(C)C)NC(=O)[C@H](Cc1ccccc1)NC(=O)[C@H](CCC(=O)O)NC(=O)[C@H](C)NC(=O)[C@H](CC(C)C)NC(=O)[C@H](CCCNC(=N)N)NC(=O)[C@H](CCC(N)=O)NC(=O)[C@@H](NC(=O)[C@H](C)NC(=O)[C@@H]1CSSC[C@H](NC(=O)[C@H](CCCCN)NC(=O)CC[C@H](NC(=O)CCCCCCCCCCCCCCCCC(=O)O)C(=O)O)C(=O)N[C@@H](CC(N)=O)C(=O)N[C@@H]([C@@H](C)O)C(=O)N[C@@H](C)C(=O)N[C@@H]([C@@H](C)O)C(=O)N1)[C@@H](C)O)C(=O)N[C@@H](CC(C)C)C(=O)N1CCC[C@H]1C(=O)N1CCC[C@H]1C(=O)N[C@H](C(=O)N[C@@H](CC(N)=O)C(=O)N[C@H](C(=O)NCC(=O)N[C@@H](CO)C(=O)N[C@@H](CC(N)=O)C(=O)N[C@H](C(=O)N[C@@H](Cc1ccc(O)cc1)C(N)=O)[C@@H](C)O)C(C)C)[C@@H](C)O [Example 46, N-alpha-[(S)-4-Carboxy-4-(17-carboxyheptadecanoylamino)butyryl]-[Glu14,His17]-pramlintide] ({C18 diacid-γGlu}-KCNTATCATQRLAEFLHHSSNNFGPILPPTNVGSNTY-NH2; disulfide 2-7 (inferred); C-terminus assumed) | 0.0792 nM | 0.122 nM | 0.433 nM
